# Laboratory results reported in patent US7179588B1, “Assay for the detection of paclitaxel resistant cells in human tumors” (Board of Regents of the University of Texas System, priority 1999, dated 2007).
# Entries after “also recorded” stand apart in the source; their conditions may differ. Like-named read-outs stand apart in the source and are kept apart here.
# Key:
# [1] = test system: CHO cell line tTApuro 6.6 transfected with HAβ1L215H cDNA; assay: Cloning efficiencies of HAβ1L215H transfected cells under selective conditions; assay type: cell-based, Chinese hamster; conditions: for Number of colonies relative to G418+tetracycline, arbitrarily set at 100 / Cloning efficiency (colonies under selective conditions divided by colonies in αMEM+tetracycline): 2 mg/ml G418 or 0.2 μg/ml paclitaxel; for Cloning efficiency (colonies under selective conditions divided by colonies in αMEM+tetracycline): 6–10 d
# Procedure: (§1) The ability of β-tubulin mutations to confer paclitaxel resistance was evaluated in 2 ways. In the first, stably transfected cell lines expressing mutant HAβ1-tubulin were seeded at approximately 100 cells/well in replicate wells of a 24-well dish containing increasing concentrations of paclitaxel. The assay was carried out in duplicate with only one set containing 1 μg/ml tetracycline. After 6–7 d, the medium was removed and the resistant colonies were stained with a solution of 0.1% methylene blue as previously described (Cabral, F., Sobel, M. E., and Gottesman, M. M. (1980) Cell 20, 29–36). In a second assay, aliquots (˜7×10^4 cells for selective, and ˜100 cells for non-selective conditions) from total transfected cell populations were seeded into duplicate 6-well dishes containing normal medium (non-selective), 2 mg/ml G418, or 0.2 μg/ml paclitaxel, each with or without 1 μg/ml tetracycline. After the appearance of visible colonies (6–7 d), one duplicate dish was stained with methylene blue and colonies were counted. Cells in the second dish were trypsinized and replated onto glass coverslips for immunofluorescence observation.
# To rule out the possibility that we may have biased the results by examining specific clones of mutant HAβ1-tubulin expressing cells, we also tested the relative abilities of G418 and paclitaxel to select mutant HAβ1-tubulin positive cells from the total transfected cell populations. We reasoned that paclitaxel should be a powerful agent for selection of mutant HAβ1-tubulin expressing cells if, and only if, the mutant tubulin is capable of conferring resistance to the drug. To test this prediction, aliquots from an HAβ1L215H transfected cell population were grown under 6 different conditions: normal medium, medium containing 2 mg/ml G418, and medium containing 0.2 μg/ml paclitaxel, each in the presence or absence of 1 μg/ml tetracycline. Using the number of colonies obtained under nonselective conditions (normal medium containing tetracycline) as a control, the relative cloning efficiencies under the various selective conditions are summarized in Table II.
# In Table II, CHO cell line tTApuro 6.6 was transfected with HAβ1L215H cDNA. At 24 h post-transfection, the cells were trypsinized and replated in normal medium (αMEM), medium containing 2 mg/ml G418, or medium containing 0.2 μg/ml paclitaxel, all either in the presence or absence of 1 μg/ml tetracycline. After 6–10 d (when visible colonies were seen) the cells were stained with methylene blue and the surviving colonies were counted. The cloning efficiency was calculated as the number of colonies obtained under selective conditions (G418 or paclitaxel) divided by the number of colonies obtained under nonselective conditions (αMEM+tetracycline). Numbers in parentheses are the number of colonies obtained relative to G418+tetracycline which was arbitrarily set at 100.
# [2] = test system: HAβ1L215H transfected CHO cells; assay: Immunofluorescence for HA tag in drug-selected HAβ1L215H transfected populations; assay type: cell-based, Chinese hamster
# Procedure: FIG. 8 depicts paclitaxel selects for transfected cells that express mutant HAβ1-tubulin. Cells transfected with HAβ1L215H cDNA were selected for resistance to G418 (A, B) or paclitaxel (C, D) either in the presence (A, C) or absence (B, D) of 1 μg/ml tetracycline. The total resistant cell population was then trypsinized and replated for 24 h in medium without tetracycline or paclitaxel before processing for immunofluorescence with an antibody specific for the HA tag. Arrows in B and C indicate cells that were positive for HAβ1L215H-tubulin expression. Approximately 50% of the cells in panel A, and 100% of the cells in panel D were positive for expression. Bar=10 μm.
# Cells were grown on glass coverslips to approximately 70% of confluence and fixed in methanol (−20° C.) for at least 10 min as previously described (Gonzalez-Garay, M. L., and Cabral, F.). The primary antibody used for most experiments was mouse monoclonal 12CA5 (Boehringer Mannheim Corp., Indianapolis, Ind.), specific for the HA tag. This was followed by fluorescein conjugated goat antimouse IgG (Cappel). […]
# The ability of β-tubulin mutations to confer paclitaxel resistance was evaluated in 2 ways. […] After the appearance of visible colonies (6–7 d), one duplicate dish was stained with methylene blue and colonies were counted. […]
# [3] = test system: Taxol resistant mutant Tax 5-6; assay: Cross-resistance growth assay in 24 well dishes, Tax 5-6; assay type: cell-based, Chinese hamster; conditions: about 100 cells per well, grown 7 days
# [4] = test system: CHO cells transfected with HAβ1, HAβ1L215H, HAβ1L217R or HAβ1L228F; assay: Paclitaxel dose response of stably transfected cell lines with or without tetracycline (24-well, methylene blue); assay type: cell-based, Chinese hamster; conditions: for Sensitivity to paclitaxel: cells transfected with mutant HAβ1-tubulin
# Procedure: FIG. 7 depicts mutant HAβ1-tubulins confer paclitaxel resistance. Approximately 100 cells were seeded into replicate wells of 24-well dishes containing the indicated concentrations of paclitaxel (in ng/ml) with (“+”) or without (“−”) 1 μg/ml tetracycline. The cells were allowed to grow for 6–7 d and were then stained with methylene blue. The cell lines came from transfections with HAβ1 (A), HAβ1L215H (B), HAβ1L217R (C), or HAβ1L228F (D).
# as §1
# Measurement of drug resistance using a standard cloning efficiency assay was complicated by the observation that clones producing moderate to high levels of mutant HAβ1-tubulin grew poorly and produced many multinucleated cells. This problem was circumvented in 2 different ways. The first came from an observation that among the multinucleated cells, there were some cells that still looked normal. […]
# wild-type CHO cells = assay: Lethality of paclitaxel to wild-type cells; assay type: cell-based, Chinese hamster; conditions: tetracycline-free medium
# Procedure: Measurement of drug resistance using a standard cloning efficiency assay was complicated by the observation that clones producing moderate to high levels of mutant HAβ1-tubulin grew poorly and produced many multinucleated cells. This problem was circumvented in 2 different ways. The first came from an observation that among the multinucleated cells, there were some cells that still looked normal. […] To select these cells, clones transfected with mutant HAβ1-tubulin were incubated in tetracycline-free medium containing a concentration of paclitaxel (0.2 μg/ml) that is lethal to wild-type cells. Multiple individual colonies were selected and tested for their dose response to paclitaxel; representative results are shown in FIG. 7. […] Thus HAβ1, HAβ1L215H, HAβ1L217R, and HAβ1L228F expressing cells were all tested for paclitaxel sensitivity in the presence or absence of tetracycline.
# [5] = test system: Paclitaxel Resistant CHO Cells
# Procedure: Metabolic labeling was for 1 h in methionine-free MEM (ICN Biomedicals Inc., Costa Mesa, Calif.) containing 30 μCi/ml Tran ^35S-label (1,000 Ci/mmol; ICN Biomedicals).
# [6] = test system: paclitaxel dependent cell line Tax-18; assay: Cross-resistance growth assay in 24 well dishes, Tax-18; conditions: for Rescue of growth of drug-dependent Tax-18: no growth without drug
# Procedure: Wild-type CHO cells (WT), Taxol resistant mutant Tax 5-6 (Tax^R), and Taxol dependent mutant Tax 18 (Tax^D) were seeded into replicate wells of 24 well dishes at a density of approximately 100 cells per well in increasing concentrations of Taxol or Taxotere as indicated (in μg/ml). The cells were grown 7 days and then stained with methylene blue.
# [7] = test system: CHO cells transfected with HAβ1, HAβ1G38E, HAβ1L217R or HAβ1L228F cDNAs; assay: Direct selection of paclitaxel resistant transfected cells; assay type: cell-based, Chinese hamster
# Procedure: as §1
# [8] = test system: paclitaxel resistant human ovarian cells; conditions: gradually selected to higher levels of resistance; cited from earlier work
# [9] = test system: KB3 cervical carcinoma cell line; conditions: preliminary evidence
# [10] = test system: paclitaxel-resistant cells; conditions: frequently observed; cited from earlier work
smiles,measurement,setting,value
CN[C@@H]1[C@@H](O)[C@@H](O[C@@H]2[C@@H](O)[C@H](O[C@H]3O[C@H]([C@@H](C)O)[C@@H](O)[C@H](O)[C@H]3N)[C@@H](N)C[C@H]2N)OC[C@]1(C)O [G418],"Number of colonies relative to G418+tetracycline, arbitrarily set at 100",[1]; +Tetracycline 1 μg/ml,100
same,Cloning efficiency (colonies under selective conditions divided by colonies in αMEM+tetracycline),[1]; +Tetracycline 1 μg/ml,1.3 × 10^−3
same,Lowering of selection efficiency under inducing conditions (no tetracycline) versus with tetracycline,[1]; G418 2 mg/ml,about 40%
same,"Number of colonies relative to G418+tetracycline, arbitrarily set at 100",[1]; −Tetracycline,60
same,Cloning efficiency (colonies under selective conditions divided by colonies in αMEM+tetracycline),[1]; −Tetracycline,7.9 × 10^−4
same,HA-positive cells in the selected population,[2]; selected under inducing conditions (no tetracycline),< 10%
"CC(=O)O[C@H]1C(=O)[C@@]2(C)[C@H]([C@H](OC(=O)c3ccccc3)[C@]3(O)C[C@H](OC(=O)[C@H](O)[C@@H](NC(=O)c4ccccc4)c4ccccc4)C(C)=C1C3(C)C)[C@]1(OC(C)=O)CO[C@@H]1C[C@@H]2O [Paclitaxel, paclitaxel]",Resistance of Tax 5-6 compared to wild-type cells,[3],more resistant
same,Selection under inducing conditions less efficient than G418 with tetracycline,"[1]; 0.2 μg/ml paclitaxel, no tetracycline",5 times
same,Fewer colonies under non-inducing conditions than under inducing conditions,"[1]; 0.2 μg/ml paclitaxel, with tetracycline",18 fold
same,"Number of colonies relative to G418+tetracycline, arbitrarily set at 100",[1]; +Tetracycline 1 μg/ml,1
same,Cloning efficiency (colonies under selective conditions divided by colonies in αMEM+tetracycline),[1]; +Tetracycline 1 μg/ml,1.4 × 10^−5
same,"Number of colonies relative to G418+tetracycline, arbitrarily set at 100",[1]; −Tetracycline,18
same,Cloning efficiency (colonies under selective conditions divided by colonies in αMEM+tetracycline),[1]; −Tetracycline,2.3 × 10^−4
same,HA-positive cells in the selected population,"[2]; selected under non-inducing conditions (with tetracycline), assayed following induction",< 5%
same,"Sensitivity to paclitaxel, HAβ1 expressed versus not expressed","[4]; HAβ1 (wild-type) transfected cells, with or without tetracycline",same sensitivity
same,Sensitivity to paclitaxel,[4]; grown with tetracycline,wild-type paclitaxel sensitivity
same,Sensitivity to paclitaxel,[4]; grown without tetracycline,clear resistance
same,Concentration lethal to wild-type cells,wild-type CHO cells,0.2 µg/mL
same,Resistant or Dependent,"[5]; cell line Tax 1–4, β-tubulin L215H",R
same,Resistant or Dependent,"[5]; cell line Tax 1–19, β-tubulin L215R",R
same,Resistant or Dependent,"[5]; cell line Tax 4–9, β-tubulin L215H",R
same,Resistant or Dependent,"[5]; cell line Tax 6–9, β-tubulin L217R",R
same,Fold resistance to paclitaxel of cell lines selected in one step,[5]; single-step selection with a single lethal dose of paclitaxel,2-3 fold
same,Rescue of growth of drug-dependent Tax-18,[6]; grown 7 d,rescued
same,Paclitaxel resistant cells obtained by direct selection,[7]; HAβ1L217R and HAβ1L228F cDNAs,many paclitaxel resistant colonies
same,Paclitaxel resistant cells obtained by direct selection,"[7]; HAβ1 or HAβ1G38E cDNAs, repeated three times",no paclitaxel resistant cells were obtained
same,Fold resistance versus unselected cells,[8],24 fold
same,Drug sensitivity of paclitaxel-selected mutant KB3 cells,[9],resistant
CC(=O)O[C@@]12CO[C@@H]1C[C@H](O)[C@@]1(C)C(=O)[C@H](O)C3=C(C)[C@@H](OC(=O)[C@H](O)[C@@H](NC(=O)OC(C)(C)C)c4ccccc4)C[C@@](O)([C@@H](OC(=O)c4ccccc4)[C@H]21)C3(C)C [Taxotere],Resistance of Tax 5-6 compared to wild-type cells,[3],more resistant
same,Resistance of Tax-18 to cytotoxic effects compared to wild-type cells,[6],resistant
same,Rescue of growth of drug-dependent Tax-18,[6]; grown 7 d,rescued
COc1cc2c(c(OC)c1OC)-c1ccc(OC)c(=O)cc1[C@@H](NC(C)=O)CC2 [colchicine],Sensitivity of paclitaxel-resistant cells to the drug,[10],increased sensitivity
C/C(=C\c1csc(C)n1)[C@@H]1C[C@@H]2O[C@]2(C)CCC[C@H](C)[C@H](O)[C@@H](C)C(=O)C(C)(C)[C@@H](O)CC(=O)O1 [epothilone-B],Resistance of Tax-18 to cytotoxic effects compared to wild-type cells,"[6]; grown 7 d, stained with methylene blue",more resistant
same,Rescue of growth of drug-dependent Tax-18,[6]; grown 7 d,rescued
CC[C@]1(O)C[C@@H]2CN(CCc3c([nH]c4ccccc34)[C@@](C(=O)OC)(c3cc4c(cc3OC)N(C)[C@H]3[C@@](O)(C(=O)OC)[C@H](OC(C)=O)[C@]5(CC)C=CCN6CC[C@]43[C@@H]65)C2)C1 [vinblastine],Drug sensitivity of paclitaxel-selected mutant KB3 cells,[9],hypersensitive
same,Sensitivity of paclitaxel-resistant cells to the drug,[10],increased sensitivity; also recorded: hypersensitive
CC[C@]1(O)C[C@H]2CN(CCc3c([nH]c4ccccc34)[C@@](C(=O)OC)(c3cc4c(cc3OC)N(C=O)[C@H]3[C@@](O)(C(=O)OC)[C@H](OC(C)=O)[C@]5(CC)C=CCN6CC[C@]43[C@@H]65)C2)C1 [vincristine],Sensitivity of paclitaxel-resistant cells to the drug,[10],hypersensitive
